Data: patent US20220267271A1, “WNT ACTIVATORS AND METHODS OF USE” (MAYO FOUNDATION FOR MEDICAL EDUCATION AND RESEARCH, priority 2019, published 2022)
Converted amounts (≈) assume the structure as drawn. Like-named read-outs stand apart in the source and are kept apart here. One block for each molecule: values may come before it.

How the values were obtained:
Wnt/β-catenin signaling [1] = test: Luciferase reporter assay (Super8XTOPFlash) for Wnt/β-catenin signaling in HEK293 cells; type: cell-based; settings: 24 h; for EC50: Homo sapiens, Wnt3A plasmid-transfected HEK293 cells, 30-30,000 nM, mean and SD of 3-7 independent experiments; for Wnt reporter activity / activation of Wnt/β-catenin signaling: HEK293 cells
Description: (§1) (A) structures of niciosamide and CI-994; (B) HEK293 cells were transfected with Super8XTOPFlash and β galactosidase vectors along with Wnt3A or control vector. After 24 hours incubation, cells were treated with CI-994 at the indicated concentration for 24 hr. The luciferase activity was then measured and normalized to the activity of the β-galactosidase. (C) HT1080 cells stably transduced LRP6 with HA tag were treated with niciosamide and CI-994 at the indicated concentrations for 24 h. The levels of HA-LRP6 were examined by Western blot with anti-HA antibody. (D) Western blots showing the depletion of LRP6 after 2 days of transiently transfection of 50 nM LRP6 siRNA in HEK293 cells. ON-TARGETplus double-stranded siRNA oligomers against human LRP6 and non-specific scrambled siRNA control (Stealth RNAi™ siRNA Negative Control, Med GC) were purchased from Thermo Scientific. siRNA LRP6-1, siRNA LRP6-2 and control siRNA were Thermo Scientific catalog numbers J-003845-09, J-003845-11 and 12935300, respectively. (E) HEK293 cells were transfected with LRP6 siRNAs, and after 8 h incubation were further transfected with Super8XTOPFlash construct and β galactosidase-expressing vector. After 24 h incubation, the cells were treated with CI-994 (16 μM) for 24 h. The luciferase activity was then measured and normalized to β-galactosidase activity. All the values are the average of triplicate determinations with the SD values indicated by error bars. **P<0.01 versus corresponding control value.
HEK293 cells were transfected with SuperXTOPFlash and β-galactosidase vectors along with Wnt3A or control vector. After 24 h incubation, cells were treated with 1015 or 1039 at the indicated concentrations for 24 h. The luciferase activity was then measured and normalized to the activity of the β-galactosidase. All the values are the average of triplicate determinations with the SD values indicated by error bars. This experiment is representative of at least three such experiments performed with similar data.
Luciferase reporter assay for Wnt/β-catenin signaling: HEK293 cells were plated into 24-well plates. After overnight culture, the cells were transiently transfected with the Super8XTOPFlash luciferase construct and β-galactosidase-expressing vector along with or without Wnt3A plasmid. After 24 h incubation, cells were treated with each individual compound at the indicated concentrations for 24 h. Cells were then lysed and both luciferase and β-galactosidase activities were determined. The luciferase activity was normalized to the β-galactosidase activity.
HEK293 cells were plated into 24-well plates. After overnight culture, the cells were transiently transfected with the Super8XTOPFlash luciferase construct and β-galactosidase-expressing vector along with the Wnt3A plasmid. After 24 h incubation, the cells were treated with each individual compound at 30-30,000 nM in triplication for 24 h. The cells were then lysed, and luciferase and β-galactosidase activities were determined with the luciferase assay system (Promega, Cat. #E1501) and β-galactosidase assay system (Promega, Cat. #E2000), respectively. The luciferase activity was normalized to the s-galactosidase activity, and the EC50 values were calculated by use of GraphPad software, and shown in the below table. All the EC50 values (mean and SD) are from 3-7 independent experiments.

C2C12 cells = test: Alkaline phosphatase (ALP) activity assay, osteoblastic differentiation of C2C12 cells; type: cell-based; settings: dose-response 0.1-12.8 μM, 72 h
Description: C2C12 cells were seeded into 24-well plates (1×10^5 cells/well). After culture overnight, the cells were treated with a Wnt activator at 0.8 μM (A) and 1.6 μM (B) for 72 h. The ALP activity was measured by ALP assay kit from AnaSpec (AS-72146). All the values are the average of triple determinations with the s.d. indicated by error bars. *P<0.05, **P<0.01 versus corresponding control value. This experiment is a representation of two such experiments performed with similar data.
C2C12 cells were seeded into 24-well plates (1×10^5 cells/well). After culture overnight, the cells were treated with the noted compounds at 0, 0.1, 0.2, 0.4, 0.8, 1.6, 3.2, 6.4 and 12.8 μM for 72 hours. The ALP activity was measured by ALP assay kit from AnaSpec (AS-72146). All the values are the average of triple determinations with the s.d. indicated by error bars.
Alkaline phosphatase (ALP) activity assay: C2C12 cells in 24-well plates were treated with each individual compound at the indicated concentrations for 72 h. Cells were then harvested for assay of ALP activity with the ALP assay kit (AnaSpec) according to the manufacturers specifications.

[2] = Metabolic stability in mouse liver microsomes; type: in vitro ADME; settings: 2 μM, five time points over 40 min, NADPH
Description: Metabolic stability of several compounds (1009, 1011, 1015, 1020, and 1056) and 2 reference compounds (propranolol and imipramine) were determined in mouse liver microsomes at five time points over 40 min using HPLC-MS. Metabolic stability is defined as the percentage of parent compound lost over time in the presence of a metabolically active test system.
Metabolic stability in mouse liver microsomes: Mouse hepatic microsomes were isolated from pooled, perfused livers of Balb/c male mice according to the standard protocol. The batch of microsomes was tested for quality control using Imipramine, Propranolol and Verapamil as reference compounds. Microsomal incubations were carried out in 96-well plates in 5 aliquots of 40 μL each (one for each time point). Liver microsomal incubation medium contained PBS (100 mM, pH 7.4), MgCl2 (3.3 mM), NADPH (3 mM), glucose-6-phosphate (5.3 mM), glucose-6-phosphate dehydrogenase (0.67 units/ml) with 0.42 mg of liver microsomal protein per ml. Control incubations were performed replacing the NADPH-cofactor system with PBS. Test compound (2 μM, final solvent concentration 1.6%) was incubated with microsomes at 37° C., shaking at 100 rpm. Incubations were performed in duplicates. Five time points over 40 minutes had been analyzed. The reactions were stopped by adding 12 volumes of 90% acetonitrile-water to incubation aliquots, followed by protein sedimentation by centrifuging at 5500 rpm for 3 minutes. […]. Supernatants were analyzed using the HPLC system coupled with tandem mass spectrometer.
The elimination constant (kel), half-life (t1/2) and intrinsic clearance (Clint) were determined in plot of […] versus time, using linear regression analysis: […]

[3] = Aqueous (kinetic) solubility assay in PBS pH 7.4; type: physicochemical; settings: phosphate-buffered saline, 25 °C, pH 7.4, aqueous buffer, kinetic from dmso stock, PBS pH 7.4, 2% DMSO, two hours, assay range 2-200 μM
Description: Aqueous solubility assay: Using a 10 mM stock solution of the compound in 100% DMSO, dilutions were prepared to a theoretical concentration of 200 μM in duplicates in phosphate-buffered saline pH 7.4 with 2% final DMSO. In parallel, compound dilutions in 50% acetonitrile/PBS were prepared to theoretical concentrations of 0 μM (blank), 50 μM, 100 μM and 200 μM with 2% final DMSO to generate calibration curves. The experimental compound dilutions in PBS were further allowed to equilibrate at 25° C. on a thermostatic orbital shaker for two hours and then centrifuged at 14000 rpm, 5 min and filtered through HTS filter plates using a vacuum manifold. The supernatants of test compounds were diluted 2-fold with acetonitrile contained 4% DMSO before measuring. Ondansetron was used as reference compound to control proper assay performance. 200 μl of samples were transferred to 96-well plate and measured in 200-550 nm range with 5 nm step. The effective range of this assay is approximately 2-200 μM and the compounds returning values close to the upper limit of the range may have higher actual solubility (e.g. 5 ? deoxy-5-fluorouddine).

LRP6 = test: Wnt reporter assay in HEK293 cells after LRP6 siRNA knockdown; type: cell-based, human; settings: CI-994 16 μM, 1011, 1015, 1023 1 μM, 24 h
Description: as §1
(A) HT1080 cells stably transduced with human LRP6 with HA tag were treated with niciosamide (1 μM) and other compounds as noted (1 μM) for 24 hr. The levels of HA-LRP6 were examined by Western blots with anti-HA antibody. All samples were also probed with anti-actin antibody to verify equal loading. This experiment is a representative of two such experiments performed with similar data. (B) N2a cells were treated with 1015 and 1011 at the indicated concentrations for 24 h. The expression levels of LRP6, β-catenin and actin were examined by Western blotting. This experiment is a representative of three such experiments performed with similar data. (C) HEK293 cells were transfected with LRP6 siRNAs, and after 8 h incubation were further transfected with Super8XTOPFlash construct and β galactosidase-expressing vector. ON-TARGETplus double-stranded siRNA oligomers against human LRP6 and non-specific scrambled siRNA control (Stealth RNAi™ siRNA Negative Control, Med GC) were purchased from Thermo Scientific. siRNA LRP6-1, siRNA LRP6-2 and control siRNA were Thermo Scientific catalog numbers J-003845-09, J-003845-11 and 12935300, respectively. […] The luciferase activity was then measured and normalized to β-galactosidase activity. […]

Wnt/β-catenin signaling [4] = settings: cancer cells; cited from earlier work
[5] = read-out: PBS solubility, pH 7.4, μM Exp1
[6] = read-out: PBS solubility, pH 7.4, μM Exp2
[7] = read-out: PBS solubility, pH 7.4, μM Mean

SMILES: Nc1ccccc1NC(=O)c1ccc(NC(=O)CCN2CCC[C@@H]3CCCC[C@@H]32)cn1 (racemic) [Compound 1059]
- EC50 (Wnt/β-catenin signaling [1]): 494 ± 147 nM

SMILES: Nc1ccccc1NC(=O)c1ccc(C(=O)NCCN2CCCC3CCCCC32)cn1 (stereo not shown) [Compound 1009]
- EC50 (Wnt/β-catenin signaling [1]): 601 ± 101 nM
- potency in inducing C2C12 osteoblastic differentiation compared with CI-994 (C2C12 cells): more potent than CI-994
- stability in mouse hepatic microsomal system [2]: moderate stability
- solubility at 2 h [3, 5]: 197 µM (≈ 83 µg/mL)
- solubility at 2 h [3, 6]: 191 µM (≈ 80.5 µg/mL)
- solubility at 2 h [3, 7]: 194 µM (≈ 81.8 µg/mL)

SMILES: Nc1ccccc1NC(=O)c1ccc(C(=O)NCCN2CCC3(CCCCC3)CC2)cn1 [Compound 1013]
- EC50 (Wnt/β-catenin signaling [1]): 444 ± 36 nM

SMILES: Nc1ccccc1NC(=O)c1ccc(C(=O)NCC2CCN2C2CCCC2)cc1 (stereo not shown) [Compound 1021]
- EC50 (Wnt/β-catenin signaling [1]): 1380 ± 643 nM

SMILES: CC1CCCC(C)N1CCC(=O)Nc1ccc(C(=O)Nc2ccccc2N)nc1 (stereo not shown) [Compound 1023]
- EC50 (Wnt/β-catenin signaling [1]): 496 ± 195 nM
- effect of knockdown of LRP6 expression on the compound's effect on Wnt/β-catenin signaling (LRP6): significantly attenuated

SMILES: COc1ccc(CN2CCC2CNC(=O)c2ccc(C(=O)Nc3ccccc3N)nc2)cc1 (stereo not shown) [Compound 1041]
- EC50 (Wnt/β-catenin signaling [1]): 596 ± 79 nM

SMILES: Nc1ccccc1NC(=O)c1ccc(C(=O)NCC2CCN2C2CCCCCC2)cn1 (stereo not shown) [Compound 1050]
- EC50 (Wnt/β-catenin signaling [1]): 408 ± 77 nM

SMILES: CC(=O)Nc1ccc(C(=O)Nc2ccccc2N)nc1 [Compound 1056]
- stability in mouse hepatic microsomal system [2]: good stability

SMILES: Cc1cc(Cl)ccc1OCCCC(=O)NO [Droxinostat, reference compound]
- Wnt reporter activity / activation of Wnt/β-catenin signaling (Wnt/β-catenin signaling [1]): unable to activate

SMILES: Cn1cc(CNCC2CCN(c3ncc(C(=O)NO)cn3)CC2)c2ccccc21 [JNJ-26481585, reference compound]
- Wnt reporter activity / activation of Wnt/β-catenin signaling (Wnt/β-catenin signaling [1]): unable to activate

SMILES: O=C(Nc1ccc([N+](=O)[O-])cc1Cl)c1cc(Cl)ccc1O [Niclosamide, 5-chloro-N-[2-chloro-4-nitrophenyl]-2-hydroxy benzamide]
- Wnt/β-catenin signaling (by inducing LRP6 degradation) (Wnt/β-catenin signaling [4]): suppresses

SMILES: Cc1nccn1CC1CCc2c(c3ccccc3n2C)C1=O (stereo not shown) [Ondansetron, reference compound]
- solubility at 2 h [3, 5]: 109 µM (≈ 32 µg/mL)
- solubility at 2 h [3, 6]: 113 µM (≈ 33.2 µg/mL)
- solubility at 2 h [3, 7]: 111 µM (≈ 32.6 µg/mL)

SMILES: O=C(CCCCCN1C(=O)c2cccc3cccc(c23)C1=O)NO [Scriptaid, reference compound]
- Wnt reporter activity / activation of Wnt/β-catenin signaling (Wnt/β-catenin signaling [1]): unable to activate

Continued, in another order:

- EC50 (Wnt/β-catenin signaling [1]): 519 ± 24 nM
SMILES: CCN1CCCC1CNC(=O)c1ccc(C(=O)Nc2ccccc2N)nc1 (stereo not shown) [Compound 1028]

- EC50 (Wnt/β-catenin signaling [1]): 483 ± 40 nM
SMILES: COCCN1CCCC1CNC(=O)c1ccc(C(=O)Nc2ccccc2N)nc1 (stereo not shown) [Compound 1030]

- EC50 (Wnt/β-catenin signaling [1]): 526 ± 268 nM
SMILES: Nc1ccccc1NC(=O)c1ccc(C(=O)NCC2CCCN2CC2CCCCC2)cn1 (stereo not shown) [Compound 1038]

- EC50 (Wnt/β-catenin signaling [1]): 298 ± 25 nM
SMILES: Nc1ccccc1NC(=O)c1ccc(C(=O)NCC2CCCN2CCc2ccccc2)cn1 (stereo not shown) [Compound 1039]
- Wnt reporter activity / activation of Wnt/β-catenin signaling (Wnt/β-catenin signaling [1]): activate

- EC50 (Wnt/β-catenin signaling [1]): 507 ± 128 nM
SMILES: Nc1ccccc1NC(=O)c1ccc(C(=O)NCC2CCN2C2CCCCC2)cn1 (stereo not shown) [Compound 1045]

- EC50 (Wnt/β-catenin signaling [1]): 532 ± 38 nM
SMILES: Nc1ccccc1NC(=O)c1ccc(C(=O)NCC2CCCN2C2CCCCC2)cn1 (stereo not shown) [Compound 1046]
